Assay results from patent publication US12678412B2, “Substituted tolans for the modulation of microbial colonization” (BioMendics, LLC, priority 2017, dated 2026).

What was measured:
[1] = test system: NEB 5 α competent E. coli; assay: Bacterial colony forming assay (Examples 6-9); type: cell-based; conditions: for Effect on E. coli colony count: PEG-400/HPβCD mixed into alcohol gel, FIG. 1; for Inhibition of E. coli growth: alcohol gel formulation, FIG. 2
Method: NEB 5 α competent E. coli were retrieved from frozen cultures and grown overnight in a bacterial incubator at 37° C. Proliferating cultures of bacteria were used in a colony forming assay by adding 25 μL of bacteria from the overnight culture to 10 mL of fresh Lysogeny Broth (LB; Bertani, G. (2004). “Lysogeny at mid-twentieth century: P1, P2, and other experimental systems”. Journal of Bacteriology. 186 (3): 595-600. PMC 321500. PMID 14729683. doi:10.1128/JR.186.3.595-600.2004). 1 mL of this diluted bacteria was added to various dilutions of formulations of substituted tolan compounds as described in Table C, below and in charts of the corresponding Figures.
One mL of each formulation was mixed with 1 mL of diluted bacteria in LB and put onto agar plates. Alcohol gels were allowed to dry and incubated overnight for 16-18 hrs. Control plates consisted of 2 mL alcohol gel plus 1 mL diluted bacteria, resulting in a colony count of less than 10 colonies, a 1 mL alcohol gel plus 1 mL diluted bacteria, resulting in a partial lawn of bacteria (colonies were too close to count appropriately), 1 mL diluted bacteria alone, resulting in a full lawn of bacteria (no distinguishable colonies), and an appropriate dilution of PEG-400 and HPβCD into 1 mL of alcohol gel plus 1 mL diluted bacteria, resulting in a lawn of bacteria. Plate area was then selected and the Image J colony counter was used to obtain colony counts (Size (pixels squared) 5-1000 and circularity 0.5-1).

[2] = test system: Candida albicans ATCC 64550; assay: Colony forming assay, spread plate, Candida albicans; type: cell-based; conditions: Formulation C, compared to low dose, vehicle, Tobramycin and untreated control, 24 h, FIG. 8
Method: A fresh culture of pathogenic isolate was used in these examples. The bacterial strains used were Methicillin Resistant Staphylococcus aureus (MRSA USA 300), Pseudomonas aeruginosa ATCC 27312, and Candida albicans ATCC 64550.
FIG. 5 illustrates the spread plate method used in these examples. In sum, agar plates were made, bacteria were diluted to 10^6 or 10^8 CFU/mL, bacteria and drug were mixed together and then plated. Glass spreading beads were used because they give a better bacterial spread. Plates were incubated for 24 hrs then the colonies that formed were counted.
Proliferating cultures of Pseudomonas aeruginosa (PA, ATCC 27312) and Candida albicans (CA, ATCC 64550) were used in a colony forming assay. Freeze-dried bacteria cultures were recovered by swabbing a 3-cm diameter growth area and resuspending it to obtain a final inoculum suspension of approximately 10^6 CFU/mL. The concentration was confirmed using historical optical density measurements. […] Plates were photographed and counted. […]
Colony counts for each treatment were tabulated and the Log of the colony forming units/mL (Log CFU/mL) were determined. The mean and standard deviation of the Log CFU/mL were calculated for each treatment. […]

[3] = test system: MRSA USA 400 biofilm; assay: Biofilm inhibition assay (prevention of biofilm formation); type: cell-based, Staphylococcus aureus; conditions: overnight 37° C.
Method: Proliferating cultures of Methicillin Resistant Staphylococcus aureus (MRSA, USA 400) were used in a colony forming assay. Frozen stock cultures of MRSA USA 400 were thawed and grown overnight in tryptic soy broth (TSB) with shaking at 37° C. The overnight culture (0.5-1.0 mL) was added to 100 mL TSB and grown at 37° C. with shaking and monitored for an optical density of 0.55-0.60 in order to obtain a final inoculum suspension of approximately 10^8 CFU/mL.
For the biofilm inhibition assay, 100 μL of MRSA USA 400 inoculum (10^8 CFU/mL) was plated with 100 μL of each BM3103 drug concentration in a 96 well plate. A 0.1 M stock of BM3103 was dissolved in ethanol and serially diluted in TSB across a 96 well plate to obtain final concentrations of 1 mM to 0.002 mM. The drug treated inoculum grew overnight at 37° C. without shaking.

[4] = test system: MRSA USA 400 biofilms; assay: Treatment of an existing biofilm; type: cell-based, Staphylococcus aureus
Method: (§1) For the treatment of MRSA USA 400 biofilms, the same 96 well plate assay procedure was used as described in the biofilm inhibition section above. However, the MRSA USA 400 inoculum (10^8 CFU/mL) grew overnight at 37° C. in the absence of BM3103 and without shaking. After 24 h of biofilm formation, BM3103 was serially diluted across a 96 well plate from of 1 mM to 0.002 mM. The plate was incubated again overnight at 37° C. without shaking.

[5] = test system: MRSA USA 400 biofilms; assay: Cell death in an existing biofilm, DAPI/propidium iodide staining; type: cell-based, Staphylococcus aureus; conditions: 24 h treatment; 0.008 mM to 0.125 mM; FIG. 15
Method: as §1
In order to confirm that treatment with BM3103 induced MRSA USA 400 bacterial cell death in the existing biofilm, both untreated cells and cells treated with BM3103 were stained with a combination of DAPI (nuclear stain) and Propidium iodide (PI, Live dead stain) as described in Example 15. MRSA USA 400 were plated in a well plate at 10^8 CFU/mL in combination with BM3103 treatment or no treatment. Plates were placed at 37° C. for 24 h. Bacteria cells were co-stained with DAPI and PI at 50 μg/mL and 500 μg/mL, respectively, for 15 min at room temperature. Wells were washed with warmed phosphate buffered saline (PBS) and maintained in PBS throughout the imaging acquisition process. Images were captured using the same exposure limits for each filter. […] Concentrations above 0.125 mM gave a similar result.

`COc1ccc(C#Cc2ccc(O)cc2)cc1` [BM3103, 4-hydroxy-4′-methoxytolan] was tested, and the “Effect on E. coli colony count” value ([1]; 280 μM (62.5 μg/mL) dilution) was “reduced the E. coli colony count considerably”, the “Effect on E. coli colony count” value ([1]; 557 μM (125 μg/mL) dilution) was “reduced colonization even more” and the “Inhibition of E. coli growth” value ([1]; 2.23 mM (500 μg/mL)) was “inhibited E. coli growth completely”. The “Inhibition of E. coli growth” value ([1]; 4.45 mM (1000 μg/mL)) was “inhibited E. coli growth completely”, the “Reduction of CA counts” value ([2]; high dose 0.5% w/v, 22 mM) was “about 4 fold” and the “Reduction of CA counts” value ([2]; medium dose 0.25% w/v, 11 mM) was “about 4 fold”. The “Biofilm formation of MRSA USA 400” value ([3]; 0.008 mM, FIG. 12B) was “Mild biofilm formation”, the “Biofilm formation of MRSA USA 400” value ([3]; 0.625 mM, FIG. 12A) was “inhibits biofilm formation of MRSA USA 400 completely” and the “Biofilm formation of MRSA USA 400” value ([3]; about 0.002 mM, FIGS. 12C-12D) was “no effect on biofilm formation”. The “Concentrations that completely inhibit biofilm formation” value [3] was “above 0.0625 mM”, the “Reduction of established MRSA USA 400 biofilm” value ([4]; 0.008 mM, 24 h treatment of 24 h biofilm, FIG. 14C) was “slight reduction in the biofilm” and the “Reduction of established MRSA USA 400 biofilm” value ([4]; 0.0625 mM or above, 24 h treatment of 24 h biofilm, FIG. 14B) was “reduced the biofilm of MRSA USA 400 significantly”. For the same compound, the “Reduction of established MRSA USA 400 biofilm” value ([4]; 0.125 mM, 24 h treatment of 24 h biofilm, FIG. 14A) was “reduced the biofilm of MRSA USA 400 significantly”, the “Reduction of established MRSA USA 400 biofilm” value ([4]; concentrations below 0.002 mM, FIG. 14D) was “no reduction in the biofilm” and the “PI staining (cell death) in existing biofilm” value [5] was “dose dependent increase in PI staining”.
